Experimental findings from patent publication US8975406B2, “Compound useful for the treatment of degenerative and inflammatory diseases” (Galapagos N.V., priority 2011, dated 2015) are described below.

Common to all, as to type: biochemical
One experiment deals with T1, Recombinant human JAK1 (Homo sapiens, UniProt P23458).
T1 construct: catalytic domain (amino acids 866-1154; catalog number PV4774); purchased Invitrogen PV4774
Nature of the experiment: JAK1 Ulight-JAK1 peptide assay. Conditions: Ulight-JAK1(tyr1023) peptide, 7 μM ATP. On the procedure:
Recombinant human JAK1 (catalytic domain, amino acids 866-1154; catalog number PV4774) was purchased from Invitrogen. 1 ng of JAK1 was incubated with 20 nM Ulight-JAK1(tyr1023) peptide (Perkin Elmer catalog number TRF0121) in kinase reaction buffer (25 mM MOPS pH6.8, 0.01% Brij-35, 5 mM MgCl2, 2 mM DTT, 7 μM ATP) with or without 4 μL containing test compound or vehicle (DMSO, 1% final concentration), in a total volume of 20 μL, in a white 384 Opti plate (Perkin Elmer, catalog number 6007290). After 60 min at room temperature, reactions were stopped by adding 20 μL/well of detection mixture (1× detection buffer (Perkin Elmer, catalog number CR97-100C), 0.5 nM Europium-anti-phosphotyrosine (PT66) (Perkin Elmer, catalog number AD0068), 10 mM EDTA). Readout is performed using the Envision with excitation at 320 nm and measuring emission at 615 nm (Perkin Elmer). Kinase activity was calculated by subtracting relative fluorescence units (RFU) obtained in the presence of a positive control inhibitor (10 μM staurosporine) from RFU obtained in the presence of vehicle. The ability of a test compound to inhibit this activity was determined as: Percentage inhibition=((RFU determined for sample with test compound present−RFU determined for sample with positive control inhibitor)divided by(RFU determined in the presence of vehicle−RFU determined for sample with positive control inhibitor))*100.
Dose dilution series were prepared for the compounds enabling the testing of dose-response effects in the JAK1 assay and the calculation of the IC50 for the compound. Each compound is routinely tested at concentration of 20 μM followed by a ⅕ serial dilution, 10 points in a final concentration of 1% DMSO. When potency of compound series increases, more dilutions are prepared and/or the top concentration are lowered (e.g. 5 μM, 1 μM). The data are expressed as the average IC50 from the assays±standard error of the mean.

The target in a further experiment is T2, Recombinant human JAK2 (Homo sapiens, UniProt O60674).
T2 construct: catalytic domain (amino acids 808-1132; catalog number PV4210); GST; purchased Invitrogen PV4210
In words: JAK2 Ulight-JAK1 peptide assay. Conditions: Ulight-JAK1(tyr1023) peptide, 7.5 μM ATP. As to the method:
Recombinant human JAK2 (catalytic domain, amino acids […]; catalog number PV4210) was purchased from Invitrogen. 0.0125 mU of JAK2 was incubated with 25 nM Ulight-JAK1(tyr1023) peptide (Perkin Elmer catalog number TRF0121) in kinase reaction buffer (25 mM HEPES pH7.0, 0.01% Triton X-100, 7.5 mM MgCl2, 2 mM DTT, 7.5 μM ATP) with or without 4 μL containing test compound or vehicle (DMSO, 1% final concentration), in a total volume of 20 μL, in a white 384 Opti plate (Perkin Elmer, catalog number 6007290). After 60 min at room temperature, reactions were stopped by adding 20 μL/well of detection mixture (1× detection buffer (Perkin Elmer, catalog number CR97-100C), 0.5 nM Europium-anti-phosphotyrosine (PT66) (Perkin Elmer, catalog number AD0068), 10 mM EDTA). Readout is performed using the Envision with excitation at 320 nm and measuring emission at 615 nm (Perkin Elmer). Kinase activity was calculated by subtracting relative fluorescence units (RFU) obtained in the presence of a positive control inhibitor (10 μM staurosporine) from RFU obtained in the presence of vehicle. The ability of a test compound to inhibit this activity was determined as: Percentage inhibition=((RFU determined for sample with test compound present−RFU determined for sample with positive control inhibitor)divided by(RFU determined in the presence of vehicle−RFU determined for sample with positive control inhibitor))*100.
Dose dilution series were prepared for each compound enabling the testing of dose-response effects in the JAK2 assay and the calculation of the IC50 for the compound. Each compound is routinely tested at concentration of 20 μM followed by a ⅕ serial dilution, 10 points in a final concentration of 1% DMSO. When potency of compound series increases, more dilutions are prepared and/or the top concentration are lowered (e.g. 5 μM, 1 μM). The data are expressed as the average IC50 from the assays±standard error of the mean.

In experiment [1] the target is T3, Recombinant human JAK3 catalytic domain (Homo sapiens, UniProt P52333).
T3 construct: catalytic domain (amino acids 795-1124; catalog number 08-046); purchased Carna Biosciences 08-046
In words: JAK3 inhibition assay. The conditions noted are these: polyGT substrate, 33P-gamma-ATP filter assay, 1 μM ATP. On the procedure:
Recombinant human JAK3 catalytic domain (amino acids 795-1124; catalog number 08-046) was purchased from Carna Biosciences. 0.5 ng JAK3 protein was incubated with 2.5 μg polyGT substrate (Sigma catalog number P0275) in kinase reaction buffer (25 mM Tris pH 7.5, 0.5 mM EGTA, 10 mM MgCl2, 2.5 mM DTT, 0.5 mM Na3VO4, 5 mM b-glycerolphosphate, 0.01% Triton X-100, 1 μM non-radioactive ATP, 0.25 μCi ^33P-gamma-ATP (Perkin Elmer, catalog number NEG602K001MC) final concentrations) with or without 5 μL containing test compound or vehicle (DMSO, 1% final concentration), in a total volume of 25 μL, in a polypropylene 96-well plate (Greiner, V-bottom). After 45 min at 30° C., reactions were stopped by adding 25 μL/well of 150 mM phosphoric acid. All of the terminated kinase reaction was transferred to prewashed (75 mM phosphoric acid) 96 well filter plates (Perkin Elmer catalog number 6005177) using a cell harvester (Perkin Elmer). Plates were washed 6 times with 300 μL per well of a 75 mM phosphoric acid solution and the bottom of the plates was sealed. 40 μL/well of Microscint-20 was added, the top of the plates was sealed and readout was performed using the Topcount (Perkin Elmer). Kinase activity was calculated by subtracting counts per min (cpm) obtained in the presence of a positive control inhibitor (10 μM staurosporine) from cpm obtained in the presence of vehicle. The ability of a test compound to inhibit this activity was determined as: Percentage inhibition=((cpm determined for sample with test compound present−cpm determined for sample with positive control inhibitor)divided by(cpm determined in the presence of vehicle−cpm determined for sample with positive control inhibitor))*100.
Dose dilution series were prepared for the compounds enabling the testing of dose-response effects in the JAK3 assay and the calculation of the IC50 for each compound. Each compound was routinely tested at concentration of 20 μM followed by a ⅕ serial dilution, 10 points in a final concentration of 1% DMSO. When potency of compound series increased, more dilutions were prepared and/or the top concentration was lowered (e.g. 5 μM, 1 μM).

T1 sequence (P23458 866-1154): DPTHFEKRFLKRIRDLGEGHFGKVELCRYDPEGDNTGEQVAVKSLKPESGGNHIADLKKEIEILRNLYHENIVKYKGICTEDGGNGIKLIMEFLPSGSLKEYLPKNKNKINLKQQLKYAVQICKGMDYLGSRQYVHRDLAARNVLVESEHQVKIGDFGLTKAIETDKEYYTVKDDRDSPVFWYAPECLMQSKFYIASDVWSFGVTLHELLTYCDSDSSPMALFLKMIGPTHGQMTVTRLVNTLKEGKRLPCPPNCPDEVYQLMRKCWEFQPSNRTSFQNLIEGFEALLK
T2 sequence (O60674 808-1132): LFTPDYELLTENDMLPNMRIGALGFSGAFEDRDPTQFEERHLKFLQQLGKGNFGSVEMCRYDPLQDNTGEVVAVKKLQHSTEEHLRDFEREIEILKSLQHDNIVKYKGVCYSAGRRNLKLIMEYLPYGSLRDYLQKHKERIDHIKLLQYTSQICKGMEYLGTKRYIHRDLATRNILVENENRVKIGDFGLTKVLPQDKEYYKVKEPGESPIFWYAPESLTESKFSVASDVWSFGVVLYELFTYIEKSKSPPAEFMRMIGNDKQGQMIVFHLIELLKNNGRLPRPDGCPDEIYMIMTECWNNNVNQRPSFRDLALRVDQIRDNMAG
T3 sequence (P52333 795-1124): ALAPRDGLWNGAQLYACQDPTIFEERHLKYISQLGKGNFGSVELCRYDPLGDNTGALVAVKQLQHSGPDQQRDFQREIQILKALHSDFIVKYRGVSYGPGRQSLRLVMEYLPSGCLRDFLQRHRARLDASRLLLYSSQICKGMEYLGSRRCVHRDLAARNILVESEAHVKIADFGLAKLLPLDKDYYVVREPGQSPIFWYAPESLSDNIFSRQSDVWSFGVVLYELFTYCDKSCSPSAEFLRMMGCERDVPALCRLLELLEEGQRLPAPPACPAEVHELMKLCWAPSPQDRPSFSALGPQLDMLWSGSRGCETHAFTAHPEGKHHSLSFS

With `CS(=O)(=O)C1CCN(Cc2ccc(-c3cccn4nc(NC(=O)C5CC5)cc34)cc2F)CC1` [Compound 18, N-(4-(3-fluoro-4-((4-(methylsulfonyl)piperidin-1-yl)methyl)phenyl)pyrazolo[1,5-a]pyridin-2-yl)cyclopropanecarboxamide], the IC50 on Recombinant human JAK1 fell in the range of 0.01 to 100 nM; on Recombinant human JAK2, 0.01 to 100 nM; in experiment [1], 101 to 500 nM.
`CS(=O)(=O)C1CCN(Cc2ccc(-c3cccn4nc(NC(=O)C5CC5)c(Cl)c34)cc2)CC1` [Compound 19, N-(3-chloro-4-(4-((4-(methylsulfonyl)piperidin-1-yl)methyl)phenyl)pyrazolo[1,5-a]pyridin-2-yl)cyclopropanecarboxamide]: the figures for the concentration for half-maximal inhibition (IC50) (on Recombinant human JAK1; on Recombinant human JAK2; in experiment [1]) were 0.01 to 100 nM, 501 to 1000 nM and more than 1000 nM, respectively.
The corresponding values for `CS(=O)(=O)C1CCN(Cc2ccc(-c3cccn4nc(NC(=O)C5CC5)c(Cl)c34)cc2F)CC1` [Compound 20, N-(3-chloro-4-(3-fluoro-4-((4-(methylsulfonyl)piperidin-1-yl)methyl)phenyl)pyrazolo[1,5-a]pyridin-2-yl)cyclopropanecarboxamide] are 0.01 to 100 nM, 101 to 500 nM and 501 to 1000 nM.
The corresponding values for `CC(=O)Nc1cc2c(-c3ccc(CN4CCN(S(C)(=O)=O)CC4)c(F)c3)cccn2n1` [Compound 21] are 0.01 to 100 nM, 0.01 to 100 nM and 101 to 500 nM.
For `CS(=O)(=O)N1CCN(Cc2ccc(-c3cccn4nc(NC(=O)C5CC5)cc34)cn2)CC1` [Compound 23, N-(4-(6-((4-(methylsulfonyl)piperazin-1-yl)methyl)pyridin-3-yl)pyrazolo[1,5-a]pyridin-2-yl)cyclopropanecarboxamide], the values for the half-inhibitory concentration (IC50) (on Recombinant human JAK1; on Recombinant human JAK2; in experiment [1]) were 0.01 to 100 nM, 101 to 500 nM and 101 to 500 nM, respectively.
Turning to `CC(=O)Nc1cc2c(-c3ccc(CN4CCN(S(C)(=O)=O)C[C@H]4C)cc3)cccn2n1` [Compound 24, (R)-N-(4-(4-((2-methyl-4-(methylsulfonyl)piperazin-1-yl)methyl)phenyl)pyrazolo[1,5-a]pyridin-2-yl)acetamide], the IC50 at Recombinant human JAK1 lay in the range of 0.01 to 100 nM; at Recombinant human JAK2, 501 to 1000 nM; in experiment [1], 501 to 1000 nM.
Consider `CC(=O)Nc1cc2c(-c3ccc(CN4CCN(S(C)(=O)=O)CC4)cc3)cccn2n1` [Compound 25, N-(4-(4-((4-(methylsulfonyl)piperazin-1-yl)methyl)phenyl)pyrazolo[1,5-a]pyridin-2-yl)acetamide], for which the IC50 on Recombinant human JAK1 was in the range of 0.01 to 100 nM; at Recombinant human JAK2, 0.01 to 100 nM; in experiment [1], 101 to 500 nM.
On to `CC(=O)Nc1cc2c(-c3cnc(CN4CCN(S(C)(=O)=O)CC4)c(F)c3)cccn2n1` [Compound 26, N-(4-(5-fluoro-6-((4-(methylsulfonyl)piperazin-1-yl)methyl)pyridin-3-yl)pyrazolo[1,5-a]pyridin-2-yl)acetamide], for which the concentration for half-maximal inhibition (IC50) at Recombinant human JAK1 was 101 to 500 nM; at Recombinant human JAK2, 101 to 500 nM; in experiment [1], more than 1000 nM.
For the compound `CC(=O)Nc1cc2c(-c3ccc(CN4CCS(=O)(=O)CC4)c(F)c3)cccn2n1` [Compound 27, N-{4-[4-(1,1-Dioxo-thiomorpholin-4-ylmethyl)-3-fluoro-phenyl]-pyrazolo[1,5-a]pyridin-2-yl}-acetamide], the concentration for half-maximal inhibition (IC50) (at Recombinant human JAK1; at Recombinant human JAK2; in experiment [1]) was 0.01 to 100 nM each time.
Take `CC(=O)Nc1cc2c(-c3ccc(CN4CCN(CC(F)(F)F)CC4)c(F)c3)cccn2n1` [Compound 28, N-(4-(3-fluoro-4-((4-(2,2,2-trifluoroethyl)piperazin-1-yl)methyl)phenyl)pyrazolo[1,5-a]pyridin-2-yl)acetamide]: the figures for the IC50 (at Recombinant human JAK1; on Recombinant human JAK2; in experiment [1]) were 0.01 to 100 nM, 0.01 to 100 nM and 101 to 500 nM, respectively.
As to `CC(=O)Nc1cc2c(-c3ccc(CN4CCC(S(C)(=O)=O)CC4)c(F)c3)cccn2n1` [Compound 29, N-(4-(3-fluoro-4((4-(methylsulfonyl)piperidin-1-yl)methyl)phenyl)pyrazolo[1,5-a]pyridin-2-yl)acetamide], the IC50 lay in the range of 0.01 to 100 nM at Recombinant human JAK1, 0.01 to 100 nM on Recombinant human JAK2 and 101 to 500 nM in experiment [1].

A word on the IC50: it is the concentration needed to halve the response being measured.
